In PMC8272914 (Journal of medicinal chemistry, 2019):

What was measured:
[1] = target: hD3R (Homo sapiens, UniProt P35462); assay: Radioligand competition binding vs [3H]-; conditions: for Ki: D3R Ki ± SEM, HEK293 cells stably expressing hD3R
[2] = target: hD2R (Homo sapiens, UniProt P14416); assay: Radioligand competition binding vs [3H]-; conditions: vs. [3H]-(R)-(+)-7-OH-DPAT; for Ki: D2R Ki ± SEM, HEK293 cells stably expressing hD2R
[3] = drug self-administration and drug discrimination, rats; cited from earlier work
[4] = target: D3R (Homo sapiens, UniProt P35462); conditions: cited from earlier work
[5] = Table 1, vs. [3H]-(R)-(+)-7-OH-DPAT
[6] = Table 2, vs. [3H]-(R)-(+)-7-OH-DPAT

Sequence of hD2R (P14416 whole entry): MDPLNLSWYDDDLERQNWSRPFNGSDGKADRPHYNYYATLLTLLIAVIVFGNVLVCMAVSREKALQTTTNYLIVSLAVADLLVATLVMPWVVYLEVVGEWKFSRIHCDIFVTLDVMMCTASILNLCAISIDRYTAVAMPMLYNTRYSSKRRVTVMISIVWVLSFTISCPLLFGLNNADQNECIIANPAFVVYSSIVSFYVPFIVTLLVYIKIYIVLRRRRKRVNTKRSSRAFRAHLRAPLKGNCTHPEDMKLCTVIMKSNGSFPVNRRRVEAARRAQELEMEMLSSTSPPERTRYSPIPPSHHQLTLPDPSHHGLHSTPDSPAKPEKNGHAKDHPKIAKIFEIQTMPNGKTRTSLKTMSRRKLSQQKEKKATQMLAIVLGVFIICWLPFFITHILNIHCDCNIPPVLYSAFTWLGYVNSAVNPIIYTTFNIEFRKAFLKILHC
Sequence of hD3R (P35462 whole entry): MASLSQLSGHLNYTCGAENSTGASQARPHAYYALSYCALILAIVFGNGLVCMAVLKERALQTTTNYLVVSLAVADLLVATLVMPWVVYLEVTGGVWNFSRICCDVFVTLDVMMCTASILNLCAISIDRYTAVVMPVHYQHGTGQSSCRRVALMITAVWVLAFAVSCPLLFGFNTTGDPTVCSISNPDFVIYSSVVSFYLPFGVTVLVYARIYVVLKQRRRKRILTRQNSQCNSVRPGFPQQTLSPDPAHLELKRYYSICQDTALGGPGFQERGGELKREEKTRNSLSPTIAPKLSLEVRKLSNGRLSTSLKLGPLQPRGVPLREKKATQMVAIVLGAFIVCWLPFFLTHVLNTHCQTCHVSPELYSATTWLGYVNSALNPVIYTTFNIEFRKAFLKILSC
Sequence of D3R (P35462 whole entry): as above

Oc1ccc2c(c1)[C@H]1OCCN[C@@H]1CO2 [Compound 15, (4aR,10bR)-3,4,4a,10b-tetrahydro-2H,5H-chromeno[4,3-b][1,4]oxazin-9-ol]
reduced affinity (loss of affinity) at both D2R and D3R relative to parent 1 ([1]; vs. [3H]-(R)-(+)-7-OH-DPAT): > 200 fold
selectivity for D3R over D2R ([1]; vs. [3H]-(R)-(+)-7-OH-DPAT): 10 fold

CCCN[C@H]1CCc2nc(N)sc2C1 [Pramipexole, reference compound]
Ki [1, 5]: 1.69 nM

C[C@H]1CO[C@@H](c2ccc(N)nc2)CN1CC1CC1CNC(=O)c1cc2ccccc2[nH]1 (stereo partly drawn) [Compound 38a, cis-N-((2-(((2S,5S)-2-(6-aminopyridin-3-yl)-5-methylmorpholino)methyl)cyclopropyl)methyl)-1H-indole-2-carboxamide]
Ki [1, 6]: 2150 nM
Ki ([2]; Table 2): 1070 nM

CCCN1CC(c2ccc(N)nc2)OC[C@@H]1C (stereo partly shown) [Compound 2]
abuse potential [3]: lack of abuse potential

CCCN(CCC)c1ccc(C2CN(CCC)[C@@H](C)CO2)cn1 (stereo partly drawn) [Compound 20, 5-((5S)-5-methyl-4-propylmorpholin-2-yl)-N,N-dipropylpyridin-2-amine]
D4R/D3R ([1]; Table 2, ratio of Ki values vs. [3H]-(R)-(+)-7-OH-DPAT): >4.74

CCc1cc(Cl)c(OC)c(N2CCN(CCCCOc3ccc4c(c3)NC(=O)CC4)CC2)c1 [Compound 57, 7-(4-(4-(3-chloro-5-ethyl-2-methoxyphenyl)piperazin-1-yl)butoxy)-3,4-dihydroquinolin-2(1H)-one]
selectivity for D2R over D3R [2]: 22 fold

CCCN(CCC)C1CCc2ccc(O)cc2C1 (stereo not shown) [Compound 7-OH-DPAT, 7-Hydroxy-N,N-dipropyl-2-aminotetralin]
D3R over D2R selectivity [4]: ~ 10 fold

O=C(NCCCCNC1COc2ccc(O)cc2C1=O)c1cc2ccccc2[nH]1 (stereo not shown) [Compound 19b, N-(4-((6-hydroxy-4-oxochroman-3-yl)amino)butyl)-1H-indole-2-carboxamide]
Ki [1, 5]: 1770 nM
reduced affinity (loss of affinity) at both D2R and D3R relative to parent 1 ([1]; vs. [3H]-(R)-(+)-7-OH-DPAT): 100–1,000 fold
Ki ([2]; Table 1): 1430 nM

C[C@H]1CO[C@@H](c2ccc(N)nc2)CN1CCCCOc1ccc2c(c1)NC(=O)CC2 [Compound 26, 7-(4-((2S,5S)-2-(6-aminopyridin-3-yl)-5-methylmorpholino)butoxy)-3,4-dihydroquinolin-2(1H)-one]
higher D3R affinity compared to its (2R,5S) diastereoisomer ([1]; 27 vs 25, 26 vs 24, vs. [3H]-(R)-(+)-7-OH-DPAT): 775 fold

O=C(NCCCCNC1COc2ccc(O)cc2C1=O)c1cc2ccccc2[nH]1 (stereo not shown) [Compound 19a, N-(4-((6-hydroxy-4-oxochroman-3-yl)amino)butyl)-1H-indole-2-carboxamide]
Ki [1, 5]: 354 ± 45.1 nM
reduced affinity (loss of affinity) at both D2R and D3R relative to parent 1 ([1]; vs. [3H]-(R)-(+)-7-OH-DPAT): 100–1,000 fold

C[C@H]1CO[C@@H](c2ccc(N)nc2)CN1CC1CC1CNC(=O)c1cc2ccccc2[nH]1 (stereo partly drawn) [Compound 37a, trans-N-((2-(((2S,5S)-2-(6-aminopyridin-3-yl)-5-methylmorpholino)methyl)cyclopropyl)methyl)-1H-indole-2-carboxamide]
Ki [1, 6]: 1190 nM
selectivity for D2R over D3R [2]: ~ 5 fold

C[C@H]1CO[C@H](c2ccc(N)nc2)CN1CC1CC1CNC(=O)c1cc2ccccc2[nH]1 (stereo partly drawn) [Compound 39b, cis-N-((2-(((2R,5S)-2-(6-aminopyridin-3-yl)-5-methylmorpholino)methyl)cyclopropyl)methyl)-1H-indole-2-carboxamide]
Ki [1, 6]: 32900 nM
Ki ([2]; Table 2): 7730 nM

C[C@H]1CO[C@@H](c2ccc(N)nc2)CN1CC1CC1CNC(=O)c1cc2ccccc2[nH]1 (stereo partly drawn) [Compound 37b, trans-N-((2-(((2S,5S)-2-(6-aminopyridin-3-yl)-5-methylmorpholino)methyl)cyclopropyl)methyl)-1H-indole-2-carboxamide]
Ki [1, 6]: 404 ± 34 nM
Ki ([2]; Table 2): 707 ± 19.8 nM

C[C@H]1CO[C@@H](c2ccc(N)nc2)CN1CC1CC1CNC(=O)c1cc2ccccc2[nH]1 (stereo partly drawn) [Compound 38b, cis-N-((2-(((2S,5S)-2-(6-aminopyridin-3-yl)-5-methylmorpholino)methyl)cyclopropyl)methyl)-1H-indole-2-carboxamide]
Ki [1, 6]: 276 ± 30 nM
Ki ([2]; Table 2): 120 ± 16.6 nM

CCCN1CCO[C@@H]2c3cc(O)ccc3OC[C@H]21 [Compound 1, (4aR,10bR)-4-propyl-3,4,4a,10b-tetrahydro-2H,5H-chromeno[4,3-b][1,4]oxazin-9-ol]
D3R over D2R selectivity [4]: ~ 10 fold

C[C@H]1CO[C@H](c2ccc(N)nc2)CN1CC1CC1CNC(=O)c1cc2ccccc2[nH]1 (stereo partly drawn) [Compound 39a, cis-N-((2-(((2R,5S)-2-(6-aminopyridin-3-yl)-5-methylmorpholino)methyl)cyclopropyl)methyl)-1H-indole-2-carboxamide]
Ki [1, 6]: 26200 nM
